Measurements from patent US8410157B2, “Fungicidal N-cycloalkyl-benzyl-thiocarboxamides or N-cycloalkyl-benzyl-N′-substituted-amidine derivatives” (Bayer Cropscience AG, priority 2007, dated 2013).

test: LogP (Table 1); type: physicochemical

SMILES | LogP
Cc1nn(C)c(F)c1C(=S)N(Cc1ccc(Oc2ccc(Cl)cc2)cc1)C1CC1 [Compound 1] | 4.59
Cc1nn(C)c(F)c1C(=S)N(Cc1ccccc1[Si](C)(C)C)C1CC1 [Compound 7] | 4.64
CCc1cccc(CC)c1CN(C(=S)c1c(C)nn(C)c1F)C1CC1 [Compound 4] | 4.39
Cc1nn(C)c(F)c1C(=S)N(Cc1ccc(Oc2ccc(Cl)cc2Cl)cc1)C1CC1 [Compound 18] | 5
Cc1nn(C)c(F)c1C(=S)N(Cc1ccc(Oc2ccccc2)cc1)C1CC1 [Compound 5] | 4.06
Cc1nn(C)c(F)c1C(=S)N(C1CC1)C(C)c1cc(Cl)ccc1Cl (racemic) [Compound 19] | 4.04
Cc1nn(C)c(F)c1C(=S)N(Cc1ccc(-c2ccc(F)c(Cl)c2)cc1F)C1CC1 [Compound 2] | 4.73
Cc1ccc(C(F)(F)F)c(CN(C(=S)c2c(C)nn(C)c2F)C2CC2)c1 [Compound 16] | 4.06
CCCC(c1ccc(Cl)cc1Cl)N(C(=S)c1c(C)nn(C)c1F)C1CC1 (racemic) [Compound 10] | 4.97
Cc1nn(C)c(F)c1C(=S)N(Cc1cc(C(F)(F)F)ccc1Cl)C1CC1 [Compound 9] | 3.96
Cc1nn(C)c(F)c1C(=S)N(Cc1ccccc1I)C1CC1 [Compound 12] | 3.68
Cc1nn(C)c(F)c1C(=S)N(C1CC1)C(C)c1cccc(OCc2ccccc2)c1 (racemic) [Compound 17] | 4.36
Cc1nn(C)c(F)c1C(=S)N(Cc1ccccc1C(C)C)C1CC1 [Compound 14] | 3.89
Cc1nn(C)c(F)c1C(=S)N(Cc1cc(Cl)ccc1Br)C1CC1 [Compound 22] | 3.99
Cc1nn(C)c(F)c1C(=S)N(Cc1cccc(C(F)(F)F)c1Cl)C1CC1 [Compound 3] | 3.92
Cc1nn(C)c(F)c1C(=S)N(Cc1ccccc1C1CCCCC1)C1CC1 [Compound 11] | 5.17
Cc1nn(C)c(F)c1C(=S)N(Cc1c(Br)cc(Br)cc1Br)C1CC1 [Compound 13] | 4.86
Cc1nn(C)c(F)c1C(=S)N(Cc1c(Cl)cc(Cl)cc1Cl)C1CC1 [Compound 6] | 4.42
Cc1nn(C)c(F)c1C(=S)N(C1CC1)C(C)c1ccc(Cl)cc1Cl (racemic) [Compound 15] | 4.14
Cc1nn(C)c(F)c1C(=S)N(Cc1ccc(C(F)(F)F)cc1Cl)C1CC1 [Compound 8] | 4.14

The remaining lines, values ahead:

LogP | SMILES
4.67 | Cn1nc(C(=S)N(Cc2c(Cl)cccc2C(F)(F)F)C2CC2)c(C(F)(F)F)n1 [Compound 46]
3.73 | Cn1cc(C(=S)N(Cc2ccccc2I)C2CC2)c(Cl)n1 [Compound 51]
3.89 | Cn1cc(C(=S)N(Cc2cc(Cl)ccc2Br)C2CC2)c(C(F)F)n1 [Compound 42]
5.95 | Cc1oc(C(C)(C)C)cc1C(=S)N(Cc1ccccc1I)C1CC1 [Compound 54]
3.71 | Cn1cc(C(=S)N(Cc2c(Cl)cccc2Cl)C2CC2)c(I)n1 [Compound 55]
4.01 | Cc1ccc(C(F)(F)F)c(CN(C(=S)c2cn(C)nc2C(F)F)C2CC2)c1 [Compound 32]
3.83 | Cn1cc(C(=S)N(Cc2c(Cl)cccc2C(F)(F)F)C2CC2)c(Cl)n1 [Compound 50]
3.53 | CCc1nn(C)cc1C(=S)N(Cc1ccccc1I)C1CC1 [Compound 53]
3.46 | Cn1cc(C(=S)N(Cc2ccccc2Br)C2CC2)c(C(F)F)n1 [Compound 31]
4.06 | Cn1cc(C(=S)N(Cc2cccc(OCc3ccccc3)c2)C2CC2)c(C(F)F)n1 [Compound 33]
4.9 | Cn1cc(C(=S)N(Cc2c(Cl)cc(OC(F)(F)F)cc2Cl)C2CC2)c(C(F)(F)F)n1 [Compound 45]
4.49 | Cn1cc(C(=S)N(Cc2c(Cl)cc(Cl)cc2Cl)C2CC2)c(Cl)n1 [Compound 52]
4.39 | CCCc1nn(C)cc1C(=S)N(C1CC1)C(C)c1ccc(Cl)cc1Cl (racemic) [Compound 56]
4.09 | Cn1cc(C(=S)N(Cc2ccc(C(F)(F)F)cc2Cl)C2CC2)c(C(F)F)n1 [Compound 35]
4.49 | Cn1cc(C(=S)N(Cc2ccccc2[Si](C)(C)C)C2CC2)c(C(F)F)n1 [Compound 37]
3.71 | Cn1cc(C(=S)N(Cc2c(Cl)cccc2C(F)(F)F)C2CC2)c(C(F)F)n1 [Compound 34]
4.54 | CCc1nn(C)c(F)c1C(=S)N(Cc1ccc(C(F)(F)F)cc1Cl)C1CC1 [Compound 28]
4.94 | Cn1nc(C(=S)N(Cc2cc(Cl)ccc2C(F)(F)F)C2CC2)c(C(F)(F)F)n1 [Compound 47]
4.49 | CC(c1cc(Cl)cc(Cl)c1)N(C(=S)c1cn(C)nc1Cl)C1CC1 (racemic) [Compound 49]
4.95 | Cn1nc(C(=S)N(Cc2ccc(Cl)cc2Cl)C2CC2)c(C(F)(F)F)n1 [Compound 48]
4.01 | Cn1cc(C(=S)N(Cc2cc3c(cc2Cl)OCO3)C2CC2)c(C(F)(F)F)c1 [Compound 44]
4.01 | Cn1cc(C(=S)N(Cc2cc(Cl)ccc2C(F)(F)F)C2CC2)c(C(F)F)n1 [Compound 36]
